Laboratory results from patent US12660820B2, “Heterocyclic compound and harmful arthropod-controlling composition including same” (SUMITOMO CHEMICAL COMPANY, LIMITED, priority 2020, dated 2026).

Test system: cotton aphids (Aphis gossypii)
Assay: Test Method 9: foliar spray on cucumber seedling infested with cotton aphids (Formulation Example 5)
Assay type: in vivo
Settings: Test Example 9-1; 200 ppm; 5 days after spraying
Method: Cucumber (Cucumis sativus) seedling (on the developmental stage of the second true leaf) is planted in a container and approximately 30 cotton aphids (Aphis gossypii) (all developmental stages of life) are released onto the leaves of the cucumber. After 1 day, the diluted solutions are sprayed to the seedling at a ratio of 10 mL/seedling. Further, after 5 days, the number of the surviving insects is examined and the controlling value is calculated by the following equation. Controlling value (%)={1−(Cb×Tai)/(Cai×Tb)}×100 wherein the symbols in the formula represent the following descriptions. • Cb: Number of the test insects in untreated group; • Cai: Number of the surviving insects at the time of the investigation in untreated group; • Tb: Number of the test insects in treated group; • Tai: Number of the surviving insects at the time of the investigation in treated group; Here the “untreated group” represents a group where the similar treatment procedure to that of the treated group except not using the test compound is done.

**Q.** Which Controlling value does the source give for `CCS(=O)(=O)c1c(-c2cnc3cc(C(F)(F)F)ccn3c2=O)nc2cc(C(F)(F)F)ccn12` [compound 6] here?
**A.** The Controlling value was no less than 90%.
